# US9187397B2 (STC.UNM, priority 2004, dated 2015)
# Read-outs that look alike come from different tables or passages of the source.
# How the values were obtained:
# [1] = Total Radical-trapping Anti-oxidant Parameter assay (TRAP assay); design: key to TRAP: active as an antioxidant (+); conditions: for TRAP: antioxidant activity; for activity in the TRAP assay: compared with curcumin
# Protocol: This assay is also known as the Total radical-trapping anti-oxidant parameter assay (TRAP assay). For the TRAP assay (Re et al., Free Rad. Biol. […] The turquoise colored reaction was allowed to stabilize for 5 min and the absorbance monitored on a Perkin Elmer UV/Vis Lambda 2S. […] The following FIGS. 2A-2C) show the analogs active in the TRAP assay.
# NF-κB = NF-κB luciferase reporter cellular assay (293T/NF-κB-luc, TNFα-stimulated); assay type: cell-based, human; conditions: for IC50: Homo sapiens, HEK-293T, inhibition of TNFα-induced NF-κB activation; for inhibition of the activation of NF-κB by TNFα (screen): 10 μM, compared with curcumin
# Protocol: The cell line is derived from human 293T embryonic kidney cells expressing the large T antigen containing a chromosomal integration of a luciferase reporter construct regulated by 6 copies of the NF-κB response element (Panomics, Inc.). This stable clonal cell line is obtained by co-transfection of pNF-κB-luc and pTK-hyg containing plasmids followed by the addition of hygromycin (200 μg/ml) to maintain cell selection.
# The cell line was grown in a humidified atmosphere at 37° C. in 5% CO2/95% air and maintained in Dulbecco's Modified Eagle's Medium (DMEM-high glucose containing 4 mM glutamine) containing fetal bovine serum (FBS, 10%), sodium pyruvate (1 mM), penicillin (100 units/ml), streptomycin (100 μg/ml) and hygromycin (100 μg/m) to maintain cell selection (Gibco/Invitrogen).
# The 293T/NF-κB-luc cells were re-plated 24 hr prior to treatment, into 24-well cell culture plates in media without hygromycin, to prevent it from interfering with the assay. The cells were then allowed to grow and attach, to the wells, for 24 hr in a humidified atmosphere at 37° C. in 5% CO2/95% air. […] The cells then were placed again in a humidified atmosphere at 37° C. in 5% CO2/95% air for 7 hr. Plate wells were gently washed with PBS, pH 7.4, and lysed with passive lysis buffer (1×, 100 μl, Promega). The subsequent chemiluminescent lysates were analyzed with the Luciferase Assay System (Promega) utilizing a TD-20/20 luminometer. The relative light units (photons) were determined by the addition of firefly luciferase substrate (75 μl) to cell lysate (10 μl). The light units were then normalized to the amount of protein in the well (mg/ml) with BCA™ Protein Assay Kit (Pierce) and standardized to percent of control (TNFα).
# This assay utilized a commercially available cell line (Panomics 293T-luc cellular assay) developed for screening inhibitors of NF-κB. This cell line is stably transfected with a luciferase reporter controlled by an NF-κB dependent promoter. The cell is stimulated with tumor necrosis factor alpha (TNFα) which activates NF-κB. NF-κB then binds to one of six promoter regions on the cell's DNA leading to the production of a luciferase enzyme. Luciferin is added to the cell lysates and the luciferase enzyme catalyzes a cleavage of luciferin leading to the emission of light.
# This cell line was developed by Panomics for screening potential inhibitors of NF-κB. Cells are stimulated with TNF-α to express luciferase, whose activity is monitored in a chemiluminometer.
# An NF-κB reporter stable cell line from human 293T embryonic kidney cells (293T/NFκB-luc) (Panomics) was grown in a humidified atmosphere at 37° C. in 5% CO2/95% air. The cells were maintained in Dulbecco's Modified Eagle's Medium (DMEM—high glucose containing 4 mM glutamine) supplemented with 10% fetal bovine serum (FBS), 1 mM sodium pyruvate, 100 units/ml penicillin, 100 μg/m streptomycin and 100 μg/ml hygromycin (Gibco/Invitrogen, Carlsbad, Calif.)) to maintain cell selection. One day prior to treatment, the 293T/NFκB-luc cells were plated into 24-well cell culture plates (Costar) at approximately 70% confluency in the above media without hygromycin. The following day cells were fed fresh media 1 hour prior to treatment. […] The cells were placed again in a humidified atmosphere at 37° C. in 5% CO2/95% air for 7 hours. Plate wells were gently washed with phosphate buffered saline, pH 7.4, and lysed with 1× passive lysis buffer (Promega). The subsequent lysates were analyzed with the Luciferase Assay System (Promega) utilizing a TD-20/20 luminometer (Turner Designs). The firefly luciferase relative light units were normalized to protein (mg/ml) with BCATM Protein Assay Kit (Pierce) and standardized to TNF-α control.
# [2] = Ferric Reducing/Anti-oxidant Power assay (FRAP assay); design: key to FRAP: active as an antioxidant (+); conditions: for FRAP: antioxidant activity; for activity in the FRAP assay: compared with curcumin
# Protocol: Anti-oxidant activity was also measured in the Ferric reducing/anti-oxidant power assay (FRAP assay) in which the analogs are reacted with a ferric tripyridyltriazine complex. For the FRAP assay (Benzie et al., Meth. Enzymol. 1999, 299, 15-27), the ferric complex was prepared at room temperature by reaction of ferric chloride (16.7 mM) and 2,4,6-tripyridyl-s-triazine (8.33 mM) in acetate buffer (0.25 M) to pH 3.6. The FRAP reagent was used immediately after preparation. […] The reaction was mixed by vortexing, allowed to stabilize for 5 min and the absorbance recorded on a Perkin Elmer UV/Vis Lambda 2S. […] The synthetic analog of α-tocopherol (vitamin E), Trolox, was used as a reference standard (10 μM in ethanol).
# The second assay used, the FRAP assay, determines the analogs abilities to reduce a Fe(III) tripyridyltriazine complex to a Fe(II) tripyridyltriazine complex. The following FIGS. 3A-3C) show analogs active in the FRAP assay.
# AP-1 = AP-1 luciferase reporter cellular assay (293/AP1-luc, PMA-stimulated); assay type: cell-based, human; conditions: for activity in the AP-1 cellular assay (screen): 15 μM, compared with curcumin; for IC50: Homo sapiens, inhibition of PMA-induced AP-1 activation, 293/AP1-luc cells, Table 10, read-out: AP-1 IC50
# Protocol: This cell line is obtained by co-transfection of pAP1-luc and pTK-hyg containing plasmids followed by the addition of hygromycin (200 μg/ml) to maintain cell selection.
# After 24 hr, the cells had reached approximately 60% confluency. […] Plate wells were gently washed with PBS, pH 7.4, and lysed with passive lysis buffer (1×, 100 μl, Promega). The subsequent chemiluminescent lysates were analyzed with the Luciferase Assay System (Promega) utilizing a TD-20/20 luminometer. The relative light units (photons) were determined by the addition of firefly luciferase substrate (75 μl) to cell lysate (10 μl). The light units were then normalized to the amount of protein in the well (mg/ml) with BCA™ Protein Assay Kit (Pierce) and standardized to percent of control (PMA).
# This cell line is stably transfected with a luciferase reporter controlled by an AP-1 dependent promoter. The cell is stimulated with phorbol ester which activates AP-1. AP-1 then binds to one of three promoter regions on the cells DNA leading to the production of a luciferase enzyme. Luciferin is added to the cell lysates and the luciferase enzyme catalyzes a cleavage of luciferin leading to the emission of light.
# [3] = 293T/NF-κB-luc cells, Table 5, read-out: IC50
SMILES,"IC50 (NF-κB; Table 10, read-out: NF-κB IC50) [µM]",activity in the AP-1 cellular assay (screen) (AP-1),inhibition of the activation of NF-κB by TNFα (screen) (NF-κB),activity in the TRAP assay ([1]; 10 μM in ethanol),further results
COc1cc(/C=C/C(=O)/C=C(O)/C=C/c2ccc(O)c(OC)c2)ccc1O [3a],8.2,,,,TRAP ([1]; Table 10): +; FRAP ([2]; Table 10): +
COc1ccc(/C=C/C(=O)/C=C(O)/C=C/c2ccc(OC)c(O)c2)cc1O [3h],,,,more active than curcumin,
COc1cc(/C=C/C(=O)/C(C)=C(O)/C=C/c2ccc(O)c(OC)c2)ccc1O [6a],6.7,more active than curcumin,more active than curcumin,,"IC50 (AP-1): 6 µM; TRAP ([1]; 10 μM in ethanol, Table 5): +; TRAP ([1]; Table 10): +; IC50 (NF-κB; [3]): 6.8 µM; FRAP ([2]; 10 μM in ethanol, Table 5): +; FRAP ([2]; Table 10): +"
COc1cc(/C=C/C(=O)/C(Cc2ccccc2)=C(O)/C=C/c2ccc(O)c(OC)c2)ccc1O [9a],7.6,more active than curcumin,more active than curcumin,,"IC50 (AP-1): 5.3 µM; TRAP ([1]; 10 μM in ethanol, Table 5): +; TRAP ([1]; Table 10): +; IC50 (NF-κB; [3]): 7.6 µM; FRAP ([2]; 10 μM in ethanol, Table 5): +; FRAP ([2]; Table 10): +"
COc1cc(CCC(=O)/C=C(\O)CCc2ccc(O)c(OC)c2)ccc1O [13a],,,,more active than curcumin,activity in the FRAP assay ([2]; 10 μM in ethanol): potent antioxidant activity
COc1cc(CCC(=O)C(C)=C(O)CCc2ccc(O)c(OC)c2)ccc1O [14a],,,more active than curcumin,more active than curcumin,
COc1cc(CCC(=O)C(Cc2ccccc2)=C(O)CCc2ccc(O)c(OC)c2)ccc1O [15a],,,,more active than curcumin,
COc1cc(/C=C/C(=O)/C=C/c2ccc(O)c(OC)c2)ccc1O [20a],,,more active than curcumin,,
O=C(/C=C/c1ccc(O)c(O)c1)/C=C/c1ccc(O)c(O)c1 [20af],,,,more active than curcumin,activity in the FRAP assay ([2]; 10 μM in ethanol): more active than curcumin
COc1cc(/C=C/C(=O)/C=C/c2ccc(OC(C)=O)c(OC)c2)ccc1OC(C)=O [20ag],5.4,more active than curcumin,more active than curcumin,,"IC50 (AP-1): 8.3 µM; IC50 (NF-κB; [3]): 5.4 µM; FRAP ([2]; 10 μM in ethanol, Table 5): +; FRAP ([2]; Table 10): +"

# Further lines, with some results ahead:
"IC50 (NF-κB; Table 10, read-out: NF-κB IC50) [µM]",activity in the AP-1 cellular assay (screen) (AP-1),inhibition of the activation of NF-κB by TNFα (screen) (NF-κB),SMILES,activity in the TRAP assay ([1]; 10 μM in ethanol),further results
,more active than curcumin,,COc1ccccc1/C=C/C(=O)/C=C/c1ccccc1OC [20c],,
,more active than curcumin,,COc1cccc(/C=C/C(=O)/C=C/c2cccc(OC)c2OC)c1OC [20d],,
,more active than curcumin,,COc1cccc(OC)c1/C=C/C(=O)/C=C/c1c(OC)cccc1OC [20l],,
6.4,more active than curcumin,more active than curcumin,COc1ccc(OC)c(/C=C/C(=O)/C=C/c2cc(OC)ccc2OC)c1 [20m],,IC50 (AP-1): 1.4 µM; IC50 (NF-κB; [3]): 6.4 µM
